{"source": "patent US11684660B2", "about": "“Human PD1 peptide vaccines and uses thereof” (OHIO STATE INNOVATION FOUNDATION, priority 2017, dated 2023)", "system": "murine colon carcinoma CT26 tumor cells", "test": "CT26 tumor challenge in Balb/c mice immunized with PD-1 constructs", "assay_type": "in vivo", "experimental": "Immunocompetent Balb/c mice of 6-8 weeks of age were purchased from Charles River Laboratories, Wilmington, Mass. and housed in The Ohio State University's University Laboratory Animal Resources (ULAR) facilitates. Isoflurane was used to anaesthetize the animals before cells injection and termination. Pre-immune sera samples were taken from the mice then they were immunized with 100 μg of peptide emulsified in Montanide ISA 720 (Seppic, Paris, France) and nor-MDP adjuvant (N-acetyl-glucosamine-3 yl-acetyl L-alanyl-D-isoglutamine). Mice received booster immunizations 3 and 6 weeks after the first. Several test sera samples were taken from the mice (FIG. 8).\n10 days after the second boost, mice were inoculated with […] murine colon carcinoma CT26 tumor cells subcutaneous on the right flank. Tumor growth was monitored three times a week and sera samples were taken weekly and upon sacrifice of the animal. Control mice on day 0 were engrated with 1×10^5 CT26 tumor cells subcutaneous and received. The animals received 150 μg injections of anti-mouse antibodies directed against PD-1. Mice were monitored and scored for the formation of palpable tumors twice weekly and sacrificed if tumors became necrotic or exceeded the predetermined size of 2,000 mm3. Tumor diameters were measured twice a week. Tumor size was calculated according to the formula: V=[(length ×width2)/2]. Tumor volumes were measured in cubic millimeters with calipers and calculated with the following formula: A×B2×0.5, where A is the largest diameter, and B is the smallest diameter. All experiments were performed in accordance with the U.S. Public Health Service Policy on Humane Care and Use of Laboratory Animals and approved by the Ohio State University Institutional Animals Care and Use Committee and detailed in the accepted protocol\nTo assess performance of 4 different vaccine treatments on tumor growth, tumor size was measured periodically in mice, and the results were compared to those of positive and negative controls. There were 5 mice in each treatment group, each receiving the assigned MVF-peptide and then being inoculated with 1e5 CT26 (colon) tumor cells 10 days after the final boost of the treatment. Day 14 was considered the primary time point of interest, as the investigators believed waiting until day 19 allowed the tumors too much time to grow, resulting in similar sizes at that point of the experiment. Tumor size was measured in three ways: LWW (½*length*width*width) at all time points, LWH (½*length*width*height) at all time points, and terminal tumor weight at the end of the study. The mice treated with MVF-PD-a(45), group C, were sacrificed before day 19 due to the death of one mouse, so the comparisons can only be made between tumor size at day 14. Tumor size is in units of mm3 for LWW and LWH and grams for terminal tumor weight.\nDue to small sample sizes in each group and inability to assume normality, the exact Wilcoxon rank-sum test was used to check for systematic differences between the distributions of tumor size at times 14 days and 19 days (FIGS. 12A-D and Tables 7-10). P-values given are for test comparing that column's control to the respective treatment, and are two-sided to account for the possibility of tumor size being systematically larger or smaller between treatment and control. As this is preliminary data, the p-values are not adjusted for multiple comparisons. Overall, there were few instances of significant differences between the distributions of a control and a treatment.\nImmunocompetent Balb/c mice (5 mice/gp) of 6-8 weeks of age were immunized with 100 μg of peptide emulsified in Montanide ISA 720 (Seppic, Paris, France) and nor-MDP adjuvant (N-acetyl-glucosamine-3 yl-acetyl L-alanyl-D-isoglutamine). […]", "note": "No end group written: not given here.", "data": [{"substance": "KLLSLIKGVIVHRLEGVE-GPSL-GAISLAPKAQIKESLRAEL-CONH2 (KLLSLIKGVIVHRLEGVEGPSLGAISLAPKAQIKESLRAEL-NH2) [MVF-PD-1 (92-110)]", "values": [{"measurement": "inhibition of tumor growth", "setting": "Day 14, FIG. 15", "value": "significant inhibition of tumor growth"}, {"measurement": "median terminal tumor weight", "setting": "end of study, 5 mice/group", "value": 1.1, "unit": "grams"}, {"measurement": "difference in tumor size distribution versus controls", "setting": "exact Wilcoxon rank-sum test, two-sided, unadjusted", "value": "systematically smaller tumor sizes than the positive control"}, {"measurement": "median tumor size LWH, Day 19", "setting": "median, 5 mice/group", "value": 819, "unit": "mm3"}, {"measurement": "median tumor size LWW, Day 19", "setting": "median, 5 mice/group", "value": 1080, "unit": "mm3"}, {"measurement": "median tumor size LWH, Day 14", "setting": "median, 5 mice/group, ½*length*width*height", "value": 270, "unit": "mm3"}, {"measurement": "median tumor size LWW, Day 14", "setting": "median, 5 mice/group, ½*length*width*width", "value": 384, "unit": "mm3"}]}]}
